{"source": "patent US9101566B2", "about": "“Fermentation product of cereal plant-derived material and immunomodulator” (KIRIN HOLDINGS KABUSHIKI KAISHA, priority 2009, dated 2015)", "key": {"[1]": {"system": "dendritic cells induced from C57BL/6 mouse bone marrow cells with Flt-3L (mDCs, CD11c+CD11b+)", "test": "Regulatory DC-inducing activity of 14-dehydroergosterol (Example 9)", "type": "cell-based", "protocol": "Regulatory DC induction activity was evaluated for 14-dehydroergosterol (14-DHE) isolated and purified from wheat bran fermented with koji as described above and subjected to structural determination. As controls, ergosterol (Wako Pure Chemical Industries, Japan) and 9(11)-dehydroergosterol (9(11)-DHE) (Sigma-Aldrich Corp.), which are ergosterol-related substances, were used. Also, as conjugated linoleic acid (CLA) that was reported in connection with the inhibition of DC activation in the past, CLA (9Z, 11E) and CLA (10E, 12Z) (both, Cayman Chemical), and linoleic acid (Wako Pure Chemical Industries, Japan) were also subjected to activity determination (J. Immunol., 175(8): 4990-8, Oct. 15, 2005). As negative controls, a sample (none) to which no compound had been administered and a sample (ctrl) to which only LPS had been administered were also subjected to activity determination.\nIn a manner similar to Example 2, bone marrow cells were prepared from C57BL/6 mouse thigh bone, and then dendritic cells were induced using Flt-3L. Each test substance was added simultaneously with the initiation of culture at a concentration of 1 μM, 5 μM, or 10 μM. Seven days later, LPS (from Salmonella typhosa) (Sigma-Aldrich Corp.) was added at 5 ng/mL and then 24 hours later the cells were recovered. Subsequently, the cells were stained for the following cell markers and then subjected to flow cytometry analysis. All antibodies used were produced by Becton, Dickinson and Company. CD11c^+CD11b^+ was set as a gate for mDCs and then the expression levels of CD40, CD80, CD86, I-A/I-E, and ICOS-L were measured. Also, IL-12p40 and IL-10 in culture supernatants were measured by ELISA."}, "[2]": {"system": "mDCs treated with 14-DHE co-cultured with naive CD4+ T cells", "test": "Antigen-non-specific Treg-inducing capacity (MLR) of DCs treated with 14-DHE (Example 10)", "type": "cell-based, mouse", "protocol": "In a manner similar to that in the above Examples, DCs were induced using Flt-3L from BALB/c mouse bone marrow cells in the presence of a processed product of wheat bran fermented with koji and then treated with LPS for 24 hours. mDCs were sorted from the thus obtained cells in a manner similar to that in Example 3 and then subjected to mitomycin C treatment to stop the DC proliferation.\nNext, naive CD4^+ T cells were sorted from C57BL/6, DCs and the sorted cells were mixed at DC:CD4^+T=1:10 (the number of cells), and then they were co-cultured. At this time, the medium was supplemented with 0.5 ng/mL TGF-β1 (Peprotech).\nSeven days layer, cells were recovered and then the proportion of FoxP3^+CD25^+ T cells in CD^+ T cells was determined using a flow cytometer (after staining of cell surface markers using anti-CD25-FITC, anti-CD3-APC-Cy7, and anti-CD4-PerCP, cell permeabilization treatment was performed using a Foxp3 Staining Buffer Set (e Bioscience) according to the manufacturer's instructions, and then intracellular Foxp3 was stained with anti-Foxp3-PE (e Bioscience)). […]\nIn a manner similar to that in Example 5, the Treg-inducing activity of mDCs treated with 14-DHE was measured. […]"}, "[3]": {"system": "regional lymph node cells and spleen cells of EAE mice", "test": "EAE model, day 11 autopsy: inflammatory cytokines produced by lymph node and spleen cells (ELISA)", "type": "in vivo, mouse", "protocol": "(§1) On day 0, the 35-55 peptide (MOG35-55, Operon), a glycoprotein of myelin oligodendroglial cells, as an antigen was mixed with complete Freund's adjuvant (CFA, Difco) and then the mixture was subcutaneously administered at a dose of 200 μg/animal. Subsequently, pertussis toxin (Wako Pure Chemical Industries, Japan) was intraperitoneally administered at a dose of 200 ng/animal on day 1 and day 3, thereby inducing the onset of multiple sclerosis. During days 7 to 18, 14-DHE was intraperitoneally administered at a dose of 10 μg/animal once a day. To the vehicle group, the following solvent for 14-DHE was administered: 10% ethanol (Wako Pure Chemical Industries, Japan)/10% Cremophor (Wako Pure Chemical Industries, Japan)/80% PBS (Takara, Japan).\n(§2) Mice were autopsied on day 11 (when inflammation was thought to take place in vivo) to obtain biochemical data.\n(1) Spleen cells were prepared and then cultured for 7 days with or without re-stimulation with 2 μM MOG. Culture supernatants were recovered. The amounts of produced IFN-γ and TNF-α were measured by ELISA."}, "[4]": {"system": "CD4+ T cells in regional lymph node cells and spleen cells of EAE mice", "test": "EAE model, day 11 autopsy: intracellular cytokine positive rate in CD4+ T cells", "type": "in vivo, mouse", "conditions": "re-stimulation with 2 μM MOG", "protocol": "as §1, §2\n(2) Spleen cells and regional lymph node (inguinal or axillary) cells were prepared and then cultured for 3 days with re-stimulation with 2 μM MOG. Golgi plug (1 μL/mL) (Becton, Dickinson and Company) was added and then further incubation was performed for 4.5 hours. Cells were recovered and then subjected to cell surface staining with CD4-PerCP and CD3-APC-Cy7. Next, cell membrane permeabilization treatment was performed using the Cytofix/CytoPerm kit (Becton, Dickinson and Company), intracellular cytokine staining was performed using antibodies to TNF-α-FITC, IL-17-PE, IL-10-APC, and IFN-γ-PE-Cy7, and then the positive rate of intracellular cytokines in CD4^+ T cells was measured using FACS."}, "[5]": {"conditions": "1, 5 or 10 μM, LPS 5 ng/mL 24 h"}, "[6]": {"conditions": "1, 5 or 10 μM, LPS 5 ng/mL, culture supernatant"}, "[7]": {"conditions": "re-stimulation with MOG antigen"}}, "data": [{"smiles": "CC(C)[C@@H](C)/C=C/[C@@H](C)[C@H]1CC=C2C3=CC=C4C[C@@H](O)CC[C@]4(C)[C@H]3CC[C@@]21C", "note": "[Sample 14-DHE, ergosta-5,7,14,22-tetraen-3β-ol]", "values": [{"measurement": "expression level of CD40", "setting": "[1]; [5]", "result": "significantly decreased"}, {"measurement": "expression level of CD80", "setting": "[1]; [5]", "result": "significantly decreased"}, {"measurement": "expression level of CD86", "setting": "[1]; [5]", "result": "significantly decreased"}, {"measurement": "expression level of ICOS-L marker", "setting": "[1]; [5]", "result": "remained almost unchanged"}, {"measurement": "expression level of MHC class II molecule I-A/I-E", "setting": "[1]; [5]", "result": "significantly decreased"}, {"measurement": "expression of anti-inflammatory cytokine IL-10 (ELISA)", "setting": "[1]; [6]", "result": "slightly increased"}, {"measurement": "expression of inflammatory cytokine IL-12p40 (ELISA)", "setting": "[1]; [6]", "result": "drastically decreased"}, {"measurement": "effective concentration on DCs", "setting": "[1]; DCs", "result": 1, "unit": "µM"}, {"measurement": "generation of Treg compared with the control", "setting": "[2]", "result": "about 2 times"}, {"measurement": "IFN-γ production from regional lymph node cells", "setting": "[3]; not re-stimulated with MOG antigen", "result": "significantly decrease"}, {"measurement": "TNF-α production from spleen cells", "setting": "[3]; re-stimulated with MOG antigen", "result": "decreased"}, {"measurement": "IFN-γ production from regional lymph node cells", "setting": "[3]; [7]", "result": "decreasing trend"}, {"measurement": "IFN-γ production from spleen cells", "setting": "[3]; [7]", "result": "decreasing trend"}, {"measurement": "TNF-α production from regional lymph node cells", "setting": "[3]; with or without re-stimulation with MOG antigen", "result": "significantly decreased"}, {"measurement": "IFN-γ production by CD4+ T cells, lymph node cells", "setting": "[4]", "result": "significantly decrease"}, {"measurement": "IFN-γ production by CD4+ T cells, spleen cells", "setting": "[4]", "result": "significantly decrease"}, {"measurement": "IL-17 production by CD4+ T cells, spleen cells", "setting": "[4]", "result": "significantly decrease"}, {"measurement": "TNF-α production by CD4+ T cells, lymph node cells", "setting": "[4]", "result": "significantly decrease"}, {"measurement": "TNF-α production by CD4+ T cells, spleen cells", "setting": "[4]", "result": "significantly decrease"}]}]}
